The results in this text go back to BindingDB's records for patent US10774051 (SHIONOGI & CO., LTD., 2020).

This experiment deals with T1, P2X purinoceptor 7 [Y155H,R270H] (Homo sapiens, UniProt Q99572, R270H/Y155H).
T1 construct: gene P2RX7
In words: Evaluation of a Human P2X7 Receptor Inhibitory Activity. The procedure: Stably expressing cell line (1321N1 cell transfected with the human P2X7 receptor gene (GenBank accession number NM_002562.5 including T606C and G952A SNP)) was used. The cells were seeded in a 384-well microtiter plate at a concentration of 8000 cells/well and cultured in the medium (10% fetal bovine serum, 25 mM HEPES, 1% penicillin and streptomycin in DMEM) for one day at 37° C. under 5% carbon dioxide atmosphere. After replacing with 20 μL of the HBSS buffer (20 mM HEPES, 55.6 mM D-glucose, 1×HBSS(−), pH7.4-7.5), 15 μL of 17.3 μM Yo-Pro solution in the HBSS buffer was added. The plate was placed in high-throughput cellular screening system FLIPR TETRA (Molecullar Devices, LLC.) and 15 μL of 130 μM BzATP solution in the HBSS buffer was added. Measurement of fluorescence intensity by FLIPR TETRA was started. After eight minutes, 15 μL of DMSO solutions containing different concentrations of the compound of the present invention as prepared by dilution with the HBSS buffer were dispensed to each well through the built-in automatic dispenser, and the measurement of fluorescence intensity was continued for 20 minutes. […] Changing values of fluorescence intensity by the compound of the present invention were calculated by difference between maximum and minimum fluorescence intensity for 20 minutes. IC50 was calculated using logistic approximation.

T1 sequence (Q99572 whole entry Y155H/R270H, looked up): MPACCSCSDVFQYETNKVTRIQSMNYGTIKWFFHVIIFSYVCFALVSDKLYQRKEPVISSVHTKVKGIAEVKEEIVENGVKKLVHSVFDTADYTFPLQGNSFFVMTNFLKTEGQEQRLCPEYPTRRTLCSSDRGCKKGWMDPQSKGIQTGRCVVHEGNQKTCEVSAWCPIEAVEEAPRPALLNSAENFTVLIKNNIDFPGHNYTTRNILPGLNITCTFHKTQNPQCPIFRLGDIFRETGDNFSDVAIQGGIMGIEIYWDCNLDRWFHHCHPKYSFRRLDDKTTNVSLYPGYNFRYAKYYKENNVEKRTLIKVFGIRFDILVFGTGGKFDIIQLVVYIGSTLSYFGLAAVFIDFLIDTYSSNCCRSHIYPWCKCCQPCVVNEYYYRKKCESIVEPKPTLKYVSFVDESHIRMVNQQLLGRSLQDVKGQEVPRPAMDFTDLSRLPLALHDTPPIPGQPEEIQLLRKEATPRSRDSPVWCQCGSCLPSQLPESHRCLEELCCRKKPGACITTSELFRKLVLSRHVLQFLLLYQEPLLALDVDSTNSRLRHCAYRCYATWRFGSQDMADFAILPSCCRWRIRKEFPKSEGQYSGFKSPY

`COc1cn(Cc2cc(F)c(F)c(F)c2)c(Nc2cccc(Cl)c2C)nc1=O` [US10774051, Compound I-0004] came in with a concentration for half-maximal inhibition (IC50) of under 10 nM.

As a reminder, the IC50 is the point on the concentration scale where inhibition reaches its midpoint.
